# pIC50: −log10 of the molar value.
# Molecular target: T1, recombinant His-tagged cytoplasmic domains of TRKA receptor (NTRK1, PV3144, aa 441-796) (Homo sapiens, UniProt P04629)
# T1 construct: aa 441-796; His; purchased Invitrogen PV3144
# Assay: Isolated TRK enzyme assay (HTRF KinEASE-TK, PV3144 TrkA enzyme assay)
# Type: biochemical
# Conditions: 4 nM enzyme, 40 uM ATP, 35 min, arithmetic mean where more than one reading
# In short: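 Enzyme and ATP were preincubated with compound for 20 min at room temperature in buffer with 10 mM MgCl and 2 mM DTT. TK-substrate-Biotin was then added (1 uM final) and the reaction run for an enzyme-specific optimized time. Phosphorylation was read by HTRF, and IC50 values came from sigmoid fits of percent inhibition normalized to plate controls, averaged over replicate readings.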
# T1 sequence (P04629 441-796): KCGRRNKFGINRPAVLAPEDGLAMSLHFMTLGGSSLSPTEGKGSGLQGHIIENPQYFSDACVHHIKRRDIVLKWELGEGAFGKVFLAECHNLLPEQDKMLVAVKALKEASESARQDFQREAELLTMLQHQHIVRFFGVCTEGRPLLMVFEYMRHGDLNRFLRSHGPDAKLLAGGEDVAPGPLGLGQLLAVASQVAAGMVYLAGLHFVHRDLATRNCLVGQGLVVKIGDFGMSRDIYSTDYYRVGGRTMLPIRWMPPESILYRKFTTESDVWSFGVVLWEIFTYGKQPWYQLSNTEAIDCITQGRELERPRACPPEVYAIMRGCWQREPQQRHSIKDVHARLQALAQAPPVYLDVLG
row,SMILES,pIC50
1,"NC(=O)c1cc(-c2c[nH]cn2)cnc1O[C@@H]1CCN(C(=O)Cc2ccc(OC(F)(F)F)cc2)C[C@@H]1F [Example 81, 2-{[(3S,4R)-3-fluoro-1-{[4-(trifluoromethoxy)phenyl]acetyl}piperidin-4-yl]oxy}-5-(1H-imidazol-4-yl)pyridine-3-carboxamide]",8.60
2,"NC(=O)c1cc(-c2c[nH]cn2)cnc1O[C@H]1CCN(C(=O)Cc2ccc(OC(F)(F)F)cc2)C[C@@H]1F [Example 82, 2-{[(3S,4S)-3-fluoro-1-{[4-(trifluoromethoxy)phenyl]acetyl}piperidin-4-yl]oxy}-5-(1H-imidazol-4-yl)pyridine-3-carboxamide]",8.38
3,"NC(=O)c1cc(-c2cn[nH]c2)ccc1O[C@@H]1CCN(C(=O)Cc2ccc(OC3CC3)cn2)C[C@@H]1F [Example 83, 2-{[(3S,4R)-1-{[5-(cyclopropyloxy)pyridin-2-yl]acetyl}-3-fluoropiperidin-4-yl]oxy}-5-(1H-pyrazol-4-yl)benzamide]",8.85
4,"NC(=O)c1cc(-c2cn[nH]c2)ccc1O[C@H]1CCN(C(=O)Cc2ccc(OC3CC3)cn2)C[C@@H]1F [Example 84, 2-{[(3S,4S)-1-{[5-(cyclopropyloxy)pyridin-2-yl]acetyl}-3-fluoropiperidin-4-yl]oxy}-5-(1H-pyrazol-4-yl)benzamide]",8.36
5,"NC(=O)c1cc(-c2cn[nH]c2)ncc1O[C@@H]1CCN(C(=O)Cc2ccc(OC(F)(F)F)cc2)C[C@@H]1F [Example 85, 5-{[(3S,4R)-3-fluoro-1-{[4-(trifluoromethoxy)phenyl]acetyl}piperidin-4-yl]oxy}-2-(1H-pyrazol-4-yl)pyridine-4-carboxamide]",8.77
6,"NC(=O)c1cc(-c2cn[nH]c2)ncc1O[C@H]1CCN(C(=O)Cc2ccc(OC(F)(F)F)cc2)C[C@@H]1F [Example 86, 5-{[(3S,4S)-3-fluoro-1-{[4-(trifluoromethoxy)phenyl]acetyl}piperidin-4-yl]oxy}-2-(1H-pyrazol-4-yl)pyridine-4-carboxamide]",7.98
7,"NC(=O)c1cc(-c2cn[nH]c2)ncc1O[C@@H]1CCN(C(=O)Cc2ccc(OC3CC3)cn2)C[C@@H]1F [Example 87, 5-{[(3S,4R)-1-{[5-(cyclopropyloxy)pyridin-2-yl]acetyl}-3-fluoropiperidin-4-yl]oxy}-2-(1H-pyrazol-4-yl)pyridine-4-carboxamide]",8.17
8,"NC(=O)c1cc(-c2cn[nH]c2)ncc1O[C@H]1CCN(C(=O)Cc2ccc(OC(F)(F)F)cc2)C[C@H]1F [Example 88, 5-{[(3R,4S)-3-fluoro-1-{[4-(trifluoromethoxy)phenyl]acetyl}piperidin-4-yl]oxy}-2-(1H-pyrazol-4-yl)pyridine-4-carboxamide]",8.82
9,"NC(=O)c1cc(-c2cnn(CCO)c2)cnc1OC1CCN(C(=O)Cc2ccc(OC(F)(F)F)cc2)CC1 [Example 89, 5-[1-(2-hydroxyethyl)-1H-pyrazol-4-yl]-2-[(1-{[4-(trifluoromethoxy)phenyl]acetyl}piperidin-4-yl)oxy]pyridine-3-carboxamide]",8.27
10,"NC(=O)c1cc(-c2ccn(CCO)n2)ccc1OC1CCN(C(=O)Cc2ccc(OC(F)(F)F)cc2)CC1 [Example 90, 5-[1-(2-hydroxyethyl)-1H-pyrazol-3-yl]-2-[(1-{[4-{trifluoromethoxy)phenyl]acetyl}piperidin-4-yl)oxy]benzamide]",8.38
11,"NC(=O)c1cc(-c2ccc(C(=O)O)cc2)cnc1OC1CCN(C(=O)Cc2ccc(OC(F)(F)F)cc2)CC1 [Example 95, 4-{5-carbamoyl-6-[(1-{[4-(trifluoromethoxy)phenyl]acetyl}piperidin-4-yl)oxy]pyridin-3-yl}benzoic acid]",8.23
12,"COCc1ccc(-c2cnc(OC3CCN(C(=O)Cc4ccc(OC(F)(F)F)cc4)CC3)c(C(N)=O)c2)cc1 [Example 97, 5-[4-(methoxymethyl)phenyl]-2-[(1-{[4-(trifluoromethoxy)phenyl]acetyl}piperidin-4-yl)oxy]pyridine-3-carboxamide]",8.13
13,"NCc1ccc(-c2cnc(OC3CCN(C(=O)Cc4ccc(OC(F)(F)F)cc4)CC3)c(C(N)=O)c2)cc1 [Example 98, 5-[4-(aminomethyl)phenyl]-2-[(1-{[4-(trifluoromethoxy)phenyl]acetyl}piperidin-4-yl)oxy]pyridine-3-carboxamide]",7.98
14,"Cc1nc[nH]c1-c1ccc(OC2CCN(C(=O)Cc3ccc(OC(F)(F)F)cc3)CC2)c(C(N)=O)c1 [Example 99, 5-(4-methyl-1H-imidazol-5-yl)-2-[(1-{[4-(trifluoromethoxy)phenyl]acetyl}piperidin-4-yl)oxy]benzamide]",8.11
15,"NC(=O)c1cc(-c2nccs2)ccc1OC1CCN(C(=O)Cc2ccc(OC(F)(F)F)cc2)CC1 [Example 100, 5-(1,3-thiazol-2-yl)-2-[(1-{[4-(trifluoromethoxy)phenyl]acetyl}piperidin-4-yl)oxy]benzamide]",8.07
16,"NC(=O)c1cc(-c2cscn2)ccc1OC1CCN(C(=O)Cc2ccc(OC(F)(F)F)cc2)CC1 [Example 101, 5-(1,3-thiazol-4-yl)-2-[(1-{[4-(trifluoromethoxy)phenyl]acetyl}piperidin-4-yl)oxy]benzamide]",8.03

row,SMILES,pIC50
1,"Cc1n[nH]c(C)c1-c1ccc(OC2CCN(C(=O)Cc3ccc(OC(F)(F)F)cc3)CC2)c(C(N)=O)c1 [Example 102, 5-(3,5-dimethyl-1H-pyrazol-4-yl)-2-[(1-{[4-(trifluoromethoxy)phenyl]acetyl}piperidin-4-yl)oxy]benzamide]",8.00
2,"NC(=O)c1cc(-c2ccc(N)nc2)ccc1OC1CCN(C(=O)Cc2ccc(OC(F)(F)F)cc2)CC1 [Example 104, 5-(6-aminopyridin-3-yl)-2-[(1-{[4-(trifluoromethoxy)phenyl]acetyl}piperidin-4-yl)oxy]benzamide]",8.40
3,"NCc1ccc(-c2ccc(OC3CCN(C(=O)Cc4ccc(OC(F)(F)F)cc4)CC3)c(C(N)=O)c2)cc1 [Example 105, 4′-(aminomethyl)-4-[(1-{[4-(trifluoromethoxy)phenyl]acetyl}piperidin-4-yl)oxy]biphenyl-3-carboxamide]",8.30
4,"NC(=O)c1cc(-c2cccc(CO)c2)ccc1OC1CCN(C(=O)Cc2ccc(OC(F)(F)F)cc2)CC1 [Example 106, 3′-(hydroxymethyl)-4-[(1-{[4-(trifluoromethoxy)phenyl]acetyl}piperidin-4-yl)oxy]biphenyl-3-carboxamide]",8.28
5,"Cn1cc(-c2ccc(OC3CCN(C(=O)Cc4ccc(C(C)(C)C)cc4)CC3)c(C(N)=O)c2)cn1 [Example 107, 2-({1-[(4-tert-butylphenyl)acetyl]piperidin-4-yl}oxy)-5-(1-methyl-1H-pyrazol-4-yl)benzamide]",8.01
6,"Cn1cc(-c2ccc(OC3CCN(C(=O)Cc4ccc(SC(F)(F)F)cc4)CC3)c(C(N)=O)c2)cn1 [Example 108, 5-(1-methyl-1H-pyrazol-4-yl)-2-{[1-({4-[(trifluoromethyl)sulfanyl]phenyl}acetyl)piperidin-4-yl]oxy}benzamide]",8.57
7,"CC(C)c1ccc(CC(=O)N2CCC(Oc3ccc(-c4cnn(C)c4)cc3C(N)=O)CC2)cc1 [Example 109, 5-(1-methyl-1H-pyrazol-4-yl)-2-[(1-{[4-(propan-2-yl)phenyl]acetyl}piperidin-4-yl)oxy]benzamide]",8.15
8,"Cn1cc(-c2ccc(OC3CCN(C(=O)Cc4ccc(OC(F)(F)F)c(Cl)c4)CC3)c(C(N)=O)c2)cn1 [Example 110, 2-[(1-{[3-chloro-4-(trifluoromethoxy)phenyl]acetyl}piperidin-4-yl)oxy]-5-(1-methyl-1H-pyrazol-4-yl)benzamide]",6.96
9,"Cn1cc(-c2ccc(OC3CCN(C(=O)Cc4ccc(OC(F)(F)F)c(F)c4)CC3)c(C(N)=O)c2)cn1 [Example 111, 2-[(1-{[3-fluoro-4-(trifluoromethoxy)phenyl]acetyl}piperidin-4-yl)oxy]-5-(1-methyl-1H-pyrazol-4-yl)benzamide]",8.35
10,"NC(=O)c1cc(-c2cn(CCO)cn2)ccc1OC1CCN(C(=O)Cc2ccc(OC(F)(F)F)cc2)CC1 [Example 115, 5-[1-(2-hydroxyethyl)-1H-imidazol-4-yl]-2-[(1-{[4-(trifluoromethoxy)phenyl]acetyl}piperidin-4-yl)oxy]benzamide]",8.36
11,"NC(=O)c1cc(-c2cn(CCO)cn2)cnc1OC1CCN(C(=O)Cc2ccc(OC(F)(F)F)cc2)CC1 [Example 116, 5-[1-(2-hydroxyethyl)-1H-imidazol-4-yl]-2-[(1-{[4-(trifluoromethoxy)phenyl]acetyl}piperidin-4-yl)oxy]pyridine-3-carboxamide]",8.09
12,"NC(=O)c1cc(-c2c[nH]c(C3(F)COC3)n2)ccc1OC1CCN(C(=O)Cc2ccc(OC(F)(F)F)cc2)CC1 [Example 117, 5-[2-(3-fluorooxetan-3-yl)-1H-imidazol-4-yl]-2-[(1-{[4-(trifluoromethoxy)phenyl]acetyl}piperidin-4-yl)oxy]benzamide]",7.97
13,"Cc1nc(-c2cnc(O[C@H]3CCN(C(=O)Cc4ccc(OC(F)(F)F)cc4)C[C@H]3F)c(C(N)=O)c2)c[nH]1 [Example 118, 2-{[(3R,4S)-3-fluoro-1-{[4-(trifluoromethoxy)phenyl]acetyl}piperidin-4-yl]oxy}-5-(2-methyl-1H-imidazol-4-yl)pyridine-3-carboxamide]",8.96
14,"NC(=O)c1cc(-c2cnn(C[C@H](O)CO)c2)ccc1OC1CCN(C(=O)Cc2ccc(OC(F)(F)F)cc2)CC1 [Example 119, 5-{1-[(2S)-2,3-dihydroxypropyl]-1H-pyrazol-4-yl}-2-[(1-{[4-(trifluoromethoxy)phenyl]acetyl}piperidin-4-yl)oxy]benzamide]",8.10
15,Cc1nc(-c2cnc(O[C@@H]3CCN(C(=O)Cc4ccc(OC(F)(F)F)cc4)C[C@@H]3F)c(C(N)=O)c2)c[nH]1 [Example 120],8.89
16,Cc1nc(-c2ccc(O[C@@H]3CCN(C(=O)Cc4ccc(OC(F)(F)F)cc4)C[C@@H]3F)c(C(N)=O)c2)c[nH]1 [Example 121],8.82
